Measurements from patent US20240116985A1, “STAPLED PEPTIDES AND METHODS THEREOF” (priority 2020, published 2024).
Where two headings read alike, the source gives them in different places.

Legend:
[1] = molecular target: T1, full-length beta-Catenin (Uniprot ID P35222) (Homo sapiens, UniProt P35222); test: Fluorescence polarization IC50 (beta-catenin / 5FAM-TCF4 10-53 competition); type: binding
T1 construct: 10 nM full-length beta-Catenin (Uniprot ID P35222)
T1 sequence (P35222 1-781): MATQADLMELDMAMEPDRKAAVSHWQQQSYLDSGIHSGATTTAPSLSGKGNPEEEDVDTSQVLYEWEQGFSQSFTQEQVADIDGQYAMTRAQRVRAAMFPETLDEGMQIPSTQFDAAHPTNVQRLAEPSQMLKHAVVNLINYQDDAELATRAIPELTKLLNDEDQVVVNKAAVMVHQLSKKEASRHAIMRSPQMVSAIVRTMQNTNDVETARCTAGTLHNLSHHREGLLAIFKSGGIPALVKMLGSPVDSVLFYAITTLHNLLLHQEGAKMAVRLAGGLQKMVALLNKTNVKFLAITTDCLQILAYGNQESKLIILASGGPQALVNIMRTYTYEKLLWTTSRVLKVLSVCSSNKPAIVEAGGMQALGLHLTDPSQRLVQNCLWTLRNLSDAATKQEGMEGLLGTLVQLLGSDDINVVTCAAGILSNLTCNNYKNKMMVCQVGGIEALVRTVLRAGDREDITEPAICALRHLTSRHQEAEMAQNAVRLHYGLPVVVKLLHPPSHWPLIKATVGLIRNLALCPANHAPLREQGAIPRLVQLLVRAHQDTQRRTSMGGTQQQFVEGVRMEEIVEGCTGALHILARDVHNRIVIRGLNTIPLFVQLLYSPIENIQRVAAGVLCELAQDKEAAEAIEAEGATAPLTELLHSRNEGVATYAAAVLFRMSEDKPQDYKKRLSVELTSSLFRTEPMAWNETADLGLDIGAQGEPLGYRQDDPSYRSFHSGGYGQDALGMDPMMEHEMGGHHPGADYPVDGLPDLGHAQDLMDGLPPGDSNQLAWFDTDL

[2] = molecular target: T2, beta-catenin/TCF4 engagement (Homo sapiens, UniProt P35222); test: Nano-BRET target engagement assay (B-cat-Halo & TCF4-Luc in HEK293 cells); type: cell-based; conditions: read-out: NanoBRET Abs IC50
T2 construct: expressed in transfected cells; host or cells: HEK293
T2 sequence (P35222 1-781): T1 sequence (P35222 1-781)

[3] = fluorescence polarization; read-out: beta-Catenin FP IC50

CC(=O)N1CCC[C@]12CC=CCCCC1(CCCC=CCCCOC(=O)N3CC[C@@](C(=O)N[C@@H](Cc4ccsc4)C(=O)N[C@@H](Cc4csc5ccccc45)C(=O)N[C@@H](CC(C)(C)C)C(N)=O)(C3)NC(=O)[C@H](CC(C)C)NC(=O)[C@H](Cc3ccccc3)NC(=O)[C@H](C)NC(=O)C(C)(C)NC(=O)[C@H](Cc3cccc(C(=O)O)c3)NC(=O)[C@H](CC(=O)O)NC1=O)NC(=O)[C@H](CC(C)(C)C)NC(=O)[C@H](CC(=O)O)NC2=O (stereo partly drawn) [I-2194, Ac-PL3-Asp-Npg-B5-Asp-3COOHF-Aib-Ala-Phe-Leu-PyrS2-3Thi-BztA-Npg-NH2]
IC50 [1, 3]: 91 nM
IC50 [2]: 8800 nM

CC(=O)N1CCC[C@]12CC=CCCCC1(CCCC=CCCCOC(=O)N3CC[C@@](C(=O)N[C@@H](Cc4ccsc4)C(=O)N[C@@H](Cc4csc5ccccc45)C(=O)N[C@@H](CO)C(N)=O)(C3)NC(=O)[C@H](CC(C)C)NC(=O)[C@H](Cc3ccccc3)NC(=O)[C@H](C)NC(=O)[C@H](C)NC(=O)[C@H]([C@@H](C)O)NC(=O)[C@H](CC(=O)O)NC1=O)NC(=O)[C@H](CC(C)(C)C)NC(=O)[C@H](CC(=O)O)NC2=O (stereo partly drawn) [I-1171, Ac-PL3-Asp-Npg-B5-Asp-Thr-Ala-Ala-Phe-Leu-PyrS2-3Thi-BztA-Ser-NH2]
IC50 [1, 3]: 70 nM
IC50 ([2]; absolute IC50): 28800 nM

CC(=O)N1CCC[C@]12CC=CCCCC1(CCCC=CCCCOC(=O)N3CC[C@@](C(=O)N[C@@H](Cc4ccsc4)C(=O)N[C@@H](Cc4csc5ccccc45)C(=O)N[C@@H](CCC(N)=O)C(N)=O)(C3)NC(=O)[C@H](CCC(=O)N3CCNCC3)NC(=O)[C@H](Cc3ccccc3)NC(=O)[C@H](C)NC(=O)[C@H](C)NC(=O)[C@H](CN(CC(=O)O)CC(F)(F)F)NC(=O)[C@H](CC(=O)O)NC1=O)NC(=O)[C@H](CC(C)(C)C)NC(=O)[C@H](CC(=O)O)NC2=O (stereo partly drawn) [I-1941, Ac-PL3-Asp-Npg-B5-Asp-TfeGA-Ala-Ala-Phe-[Ppz]GlnR-PyrS2-3Thi-BztA-Gln-NH2]
IC50 [1, 3]: 6 nM
IC50 [2]: 12900 nM

CC(=O)N1CCC[C@]12CC=CCCCC1(CCCC=CCCCOC(=O)N3CC[C@@](C(=O)N[C@@H](Cc4ccsc4)C(=O)N[C@@H](Cc4csc5ccccc45)C(=O)N[C@@H](CCC(N)=O)C(N)=O)(C3)NC(=O)[C@H](CC(C)C)NC(=O)[C@H](Cc3ccccc3)NC(=O)[C@H](C)NC(=O)[C@H](C)NC(=O)[C@H](CC(=O)O)NC(=O)[C@H](CC(=O)O)NC1=O)NC(=O)[C@H](CC(C)(C)C)NC(=O)[C@H](CC(=O)OCCSSc1ccccc1)NC2=O (stereo partly drawn) [I-1953, Ac-PL3-[EtSSPh]AspE-Npg-B5-Asp-Asp-Ala-Ala-Phe-Leu-PyrS2-3Thi-BztA-Gln-NH2]
IC50 ([1]; read-out: beta-Catenin FP IC50; fluorescence polarization): 306 nM
IC50 [2]: > 20000 nM

CC(=O)N1CCC[C@]12CC=CCCCC1(CCCC=CCCCCCC[C@@](C)(C(=O)N[C@@H](Cc3ccccc3)C(=O)N[C@@H](Cc3csc4ccccc34)C(=O)N[C@@H](CCC(N)=O)C(N)=O)NC(=O)[C@H](CCO)NC(=O)[C@H](Cc3ccccc3)NC(=O)[C@H](C)NC(=O)[C@H](C)NC(=O)[C@H](CCC(=O)O)NC(=O)[C@H](CC(=O)O)NC1=O)NC(=O)[C@H](Cc1ccccc1)NC(=O)[C@H](CC(=O)O)NC2=O (stereo partly drawn) [I-1551, Ac-PL3-Asp-Phe-B5-Asp-Glu-Ala-Ala-Phe-Hse-S8-Phe-BztA-Gln-NH2]
IC50 [1, 3]: 16 nM
IC50 ([2]; absolute IC50): 19800 nM

CC(=O)N1CCC[C@]12CC=CCCCC1(CCCC=CCCCOC(=O)N3CC[C@@](C(=O)N[C@@H](Cc4ccccc4)C(=O)N[C@@H](Cc4csc5ccccc45)C(=O)N[C@@H](CCC(N)=O)C(N)=O)(C3)NC(=O)[C@H](CC(C)C)NC(=O)[C@H](Cc3ccccc3)NC(=O)[C@H](C)NC(=O)[C@H](CCCCNC(C)C)NC(=O)[C@H](CCC(N)=O)NC(=O)[C@H](CC(=O)O)NC1=O)NC(=O)[C@H](CC1CCCCC1)NC(=O)[C@H](CC(N)=O)NC2=O (stereo partly drawn) [I-1648, Ac-PL3-Asn-Cha-B5-Asp-Gln-iPrLys-Ala-Phe-Leu-PyrS2-Phe-BztA-Gln-NH2]
IC50 [1, 3]: 191 nM
IC50 ([2]; absolute IC50): > 20000 nM

CC(=O)N1CCC[C@]12CC=CCCCC1(CCCC=CCCCOC(=O)N3CC[C@@](C(=O)N[C@@H](Cc4ccsc4)C(=O)N[C@H](C(=O)N[C@@H](CCC(N)=O)C(N)=O)[C@H](C)c4ccc5ccccc5c4)(C3)NC(=O)[C@H](CC(C)C)NC(=O)[C@H](Cc3ccccc3)NC(=O)[C@H](C)NC(=O)[C@H](C)NC(=O)[C@H](Cc3cccc(C(=O)O)c3)NC(=O)[C@H](CC(=O)O)NC1=O)NC(=O)[C@H](CC(C)(C)C)NC(=O)[C@H](CC(=O)O)NC2=O (stereo partly drawn) [I-2311, Ac-PL3-Asp-Npg-B5-Asp-3COOHF-Ala-Ala-Phe-Leu-PyrS2-3Thi-RbMe2NapA-Gln-NH2]
IC50 [1, 3]: 5 nM
IC50 ([2]; absolute IC50): 5200 nM

CC(=O)N1CCC[C@]12CC=CCCCC1(CCCC=CCCCOC(=O)N3CC[C@@](C(=O)N[C@@H](Cc4ccccc4C(F)(F)F)C(=O)N[C@@H](Cc4csc5ccccc45)C(=O)N[C@@H](CO)C(N)=O)(C3)NC(=O)[C@H](CC(C)C)NC(=O)[C@H](Cc3ccccc3)NC(=O)[C@H](C)NC(=O)[C@H](C)NC(=O)[C@H](Cn3cc(CCC(=O)O)nn3)NC(=O)[C@H](CC(=O)O)NC1=O)NC(=O)[C@H](CC(C)(C)C)NC(=O)[C@H](CC(=O)O)NC2=O (stereo partly drawn) [I-2371, Ac-PL3-Asp-Npg-B5-Asp-[CH2CH2CO2H]TriAzDap-Ala-Ala-Phe-Leu-PyrS2-2F3MeF-BztA-Ser-NH2]
IC50 [1, 3]: 5 nM
IC50 ([2]; absolute IC50): 5000 nM

CC(=O)N1CCC[C@]12CCCCCCC1(CCCCCCOC(=O)N3CC[C@@](C(=O)N[C@@H](Cc4ccsc4)C(=O)N[C@@H](Cc4csc5ccccc45)C(=O)N[C@@H](CCC(N)=O)C(N)=O)(C3)NC(=O)[C@H](CC(N)=O)NC(=O)[C@H](Cc3ccccc3)NC(=O)[C@H](C)NC(=O)[C@H](C)NC(=O)[C@H](CC(=O)O)NC(=O)[C@H](CC(=O)O)NC1=O)NC(=O)[C@H](CC(C)(C)C)NC(=O)[C@H](CC(=O)O)NC2=O (stereo partly drawn) [I-1823, Ac-PL3-Asp-Npg-B5-Asp-Asp-Ala-Ala-Phe-Asn-PyrS-3Thi-BztA-Gln-NH2]
IC50 [1, 3]: 41 nM
IC50 ([2]; absolute IC50): > 20000 nM

CC(=O)N1CCC[C@]12CC=CCCCC1(CCCC=CCCCOC(=O)N3CC[C@@](C(=O)N[C@@H](Cc4ccsc4)C(=O)N[C@@H](Cc4csc5ccccc45)C(=O)N[C@@H](CCC(N)=O)C(N)=O)(C3)NC(=O)[C@H](Cn3cc(CN4CCOCC4)nn3)NC(=O)[C@H](Cc3ccccc3)NC(=O)[C@H](C)NC(=O)[C@H](C)NC(=O)[C@H](CN(CC(=O)O)CC(F)(F)F)NC(=O)[C@H](CC(=O)O)NC1=O)NC(=O)[C@H](CC(C)(C)C)NC(=O)[C@H](CC(=O)O)NC2=O (stereo partly drawn) [I-1865, Ac-PL3-Asp-Npg-B5-Asp-TfeGA-Ala-Ala-Phe-[MorphCH2]TriAzDap-PyrS2-3Thi-BztA-Gln-NH2]
IC50 [1, 3]: 10 nM
IC50 [2]: > 20000 nM

CC(=O)N1CCC[C@]12CC=CCCCC1(CCCC=CCCCOC(=O)N3CC[C@@](C(=O)N[C@@H](Cc4ccsc4)C(=O)N[C@@H](Cc4cccc5ccccc45)C(=O)N[C@@H](CCC(N)=O)C(N)=O)(C3)NC(=O)[C@H](CC(C)C)NC(=O)[C@H](Cc3ccccc3)NC(=O)[C@H](C)NC(=O)[C@H](C)NC(=O)[C@H](CC(=O)O)NC(=O)[C@H](CC(=O)O)NC1=O)NC(=O)[C@H](CC(C)(C)C)NC(=O)[C@H](CC(=O)O)NC2=O (stereo partly drawn) [I-1234, Ac-PL3-Asp-Npg-B5-Asp-Asp-Ala-Ala-Phe-Leu-PyrS2-3Thi-1NapA-Gln-NH2]
IC50 [1, 3]: 41 nM
IC50 ([2]; absolute IC50): 23900 nM

CC(=O)N1CCC[C@]12CC=CCCCC1(CCCC=CCCCOC(=O)N3CC[C@@](C(=O)N[C@@H](Cc4ccsc4)C(=O)N[C@@H](Cc4csc5ccccc45)C(=O)N[C@@H](CCC(N)=O)C(N)=O)(C3)NC(=O)[C@H](Cn3cc(CN4CCOCC4)nn3)NC(=O)[C@H](Cc3ccccc3)NC(=O)[C@H](C)NC(=O)[C@H](C)NC(=O)[C@H](CN(CC(=O)O)CC(F)(F)F)NC(=O)[C@H](CC(=O)O)NC1=O)NC(=O)[C@H](CC(C)(C)C)NC(=O)[C@H](CC(=O)O)NC2=O (stereo partly drawn) [I-1867, Ac-PL3-Asp-Npg-B5-Asp-TfeGA-Ala-Ala-Phe-[MorphCH2]TriAzDap-PyrS2-3Thi-BztA-Gln-NH2]
IC50 [1, 3]: 7 nM
IC50 [2]: 16400 nM

CC(=O)N1CCC[C@]12CC=CCCCC1(CCCC=CCCCOC(=O)N3CC[C@@](C(=O)N[C@@H](Cc4ccccc4C(F)(F)F)C(=O)N[C@@H](Cc4ccc(Cl)c(Cl)c4)C(=O)N[C@@H](C)C(N)=O)(C3)NC(=O)[C@H](CC(C)C)NC(=O)[C@H](Cc3ccccc3)NC(=O)[C@H](C)NC(=O)[C@H](CCC(N)=O)NC(=O)[C@H](Cc3cccc(C(=O)O)c3)NC(=O)[C@H](CC(=O)O)NC1=O)NC(=O)[C@H](CC(C)(C)C)NC(=O)[C@H](CC(=O)O)NC2=O (stereo partly drawn) [I-2219, Ac-PL3-Asp-Npg-B5-Asp-3COOHF-Gln-Ala-Phe-Leu-PyrS2-2F3MeF-34C1F-Ala-NH2]
IC50 [1, 3]: 21 nM
IC50 ([2]; absolute IC50): 2700 nM
